Literature values, collected in patent US7413751B2, “Methods of treatment using a gastric retained losartan dosage” (Depomed, Inc., priority 2001, dated 2008).
Read-outs that look alike come from different tables or passages of the source.

How the values were obtained:
[1] = system: diastolic pressure response to angiotensin II

SMILES | half-life (Japanese patients tested) | half-life (in vivo) | tmax (in vivo) | effects at 24 hours ([1]; 25 mg dosage) | effects at 24 hours ([1]; 50 mg and 100 mg dosages) | peak:trough blood pressure ratio (5-6 hours after dosing: 24 hours after dosing) ([1]; 50 mg dosage) | peak:trough blood pressure ratio (5-6 hours after dosing: 24 hours after dosing) ([1]; 100 mg dosage) | blockade of the diastolic pressure response to angiotensin II ([1]; 24 hours after dosing)
CCCCc1nc(Cl)c(C(=O)O)n1Cc1ccc(-c2ccccc2-c2nn[nH]n2)cc1 [active metabolite of losartan potassium] | 4 to 5 h | 6 to 9 h | 2 to 4 h |  |  |  |  | 
CCCCc1nc(Cl)c(CO)n1Cc1ccc(-c2ccccc2-c2nnn[nH]2)cc1.[K] [losartan potassium, 2-butyl-4-chloro-1[p-(o-1H-tetrazol-5-ylphenyl)benzyl]imidazole-5-methanol monopotassium salt] |  |  |  | not | observed | 60% | 72% | approximately 30%
